In patent US20100172944A1, “COMBINATION OF MONOSACCHARIDES WITH SUNSCREENS AND USE THEREOF” (L'OREAL, priority 2008, published 2010):

Assays:
type I procollagen = experiment: Synthesis of procollagen 1 in reconstructed skin (indirect immunofluorescence); assay type: cell-based, human; settings: for procollagen 1 synthesis: reconstructed skin
Protocol: Conventional detection via indirect immunofluorescence of type I procollagen in the dermis of the reconstructed skin was also performed on other series of frozen sections (anti-procoll 1 antibody (MAB 1912 Millipore)+FTIC-coupled conjugate (112-095-068 Jackson Immunoresearch)). In order to obtain bearings within the cutaneous architecture during the microscopic examination of the sections, the cell nuclei of the keratinocytes and fibroblasts are localized by staining them with propidium iodide, as described above. Three frozen sections are prepared at random on each reconstructed skin and on each section, and two microscopic fields (25× objective lens) are analysed by fluorescence microscopy and photographed. The levels of fluorescence proportional to the amount of type I procollagen are compared between the control skin and the skin treated with rhamnose.

[1] = system: keratinocytes (HaCat line); experiment: Proliferation of keratinocytes in culture medium deficient in growth factors (Cyquant, Nile red, XTT markers); assay type: cell-based; settings: medium depleted in growth factors; compared with untreated control
Protocol: The keratinocytes (HaCat line) are cultured under two conditions: whole defined culture medium (standard condition) and culture medium deficient in growth factors. This deficient medium gives rise to a controlled delay in cell proliferation. Under these conditions, it is then possible to measure the effects of compounds capable of compensating for the deficiency in growth factors of the culture medium and thus of relaunching the cell multiplication and/or of stimulating cell metabolism.
The keratinocyte proliferation is measured by means of three markers on the same cell population: the level of DNA, which is proportional to the number of cells (Cyquant probe), the level of constituent polar lipids of cell membranes (Nile red probe) and the mitochondrial respiration, which reflects the general cell metabolism (XTT probe).

[2] = system: dermal fibroblasts of the reconstructed skin; experiment: Proliferation of fibroblasts in whole reconstructed skin (propidium iodide nuclei count on frozen sections); assay type: cell-based, human; settings: 5 mM; within 48 hours of treatment; vs control skin
Description: Rhamnose was studied on a model of whole reconstructed skin in order to measure its anti-ageing efficacy on the dermal compartment.
Briefly, the model of reconstructed skin used is that described by Bell et al. (Bell E. et al., The reconstitution of living skin, J. Invest. Dermatol., 1983, July; 81): it includes a dermal equivalent on which is reconstructed a multistratified epidermis; the dermal equivalent is manufactured from acid-soluble collagen, culture medium containing serum and normal adult human fibroblasts. After 5 days of shrinkage, this equivalent is inoculated with keratinocytes and then cultured for 6 days in immersion and for 7 days in emersion in order to obtain a multistratified and differentiated epidermis having a horny layer.
The reconstructed skin is treated with 5 mM rhamnose for 2 days and 5 days in the culture medium; after the treatment, the reconstructed skins are included in Tissue Tek in order to produce frozen sections 7 μm thick with a cryostat. […] Three frozen sections are prepared at random on each reconstructed skin; on each section, two microscopic fields (25× objective lens) are analysed by fluorescence microscopy and photographed. The dermal fibroblasts are thus counted for each reconstructed skin on six images in total representing the six microscopic fields considered. […]

`C[C@H](O)[C@H](O)[C@@H](O)[C@@H](O)C=O` [rhamnose, Rhamnose] was tested, and the “green fluorescence proportional to the amount of type I procollagen” value (type I procollagen; 1 mM for 120 hours, compared with control skin (FIG. 4)) was “marked increase in green fluorescence”, the “procollagen 1 synthesis” value (type I procollagen; 1 mM) was “stimulation of procollagen 1 synthesis” and the “procollagen 1 synthesis” value (type I procollagen; 5 mM) was “stimulation of procollagen 1 synthesis”. The keratinocyte proliferation [1] was “activate keratinocyte proliferation” and the “growth of the dermal fibroblasts of the reconstructed skin” value [2] was “induces stimulation of growth”.
